Data as given in ChEMBL document CHEMBL5149974, “Antimicrobial drugs bearing guanidine moieties: A review” (Eur J Med Chem, 2021).
In brackets after ≈: the same amount, converted by molar mass.

What was measured:
[1] = test system: Mycolicibacterium smegmatis; experiment: Potentiation of cefotaxime-induced antibacterial activity against Mycobacterium smegmatis assessed as cefotaxime MIC incubated for 48 hrs by alamar blue assay (reference value: 64 ug/ml); assay type: functional
[2] = test system: Mycobacterium tuberculosis; experiment: Anti-mycobacterial activity against Mycobacterium tuberculosis H37Rv assessed as bacterial growth inhibition incubated for 7 days by REMA assay; assay type: functional; details: 168 h, time 7 day
[3] = test system: Staphylococcus aureus; experiment: Antibacterial activity against Staphylococcus aureus assessed as bacterial growth inhibition incubated for 18 to 24 hrs by broth microdilution assay; assay type: functional; details: time 18-24 hrs
[4] = test system: Escherichia coli; experiment: Antibacterial activity against Escherichia coli assessed as bacterial growth inhibition incubated for 18 to 24 hrs by broth microdilution assay; assay type: functional; details: time 18-24 hrs
[5] = test system: Staphylococcus aureus; experiment: Antibacterial activity against methicillin-resistant Staphylococcus aureus ATCC 33591 assessed as bacterial growth inhibition by CLSI based broth microdilution method; assay type: functional
[6] = test system: Mycobacterium tuberculosis; experiment: Anti-mycobacterial activity against Mycobacterium tuberculosis H37Rv ATCC […] assessed as bacterial growth inhibition by alamar blue assay; assay type: functional
[7] = test system: Escherichia coli; experiment: Antibacterial activity against Escherichia coli assessed as bacterial growth inhibition incubated for 24 hrs; assay type: functional
[8] = test system: Klebsiella pneumoniae; experiment: Antibacterial activity against Klebsiella pneumoniae assessed as bacterial growth inhibition; assay type: functional
[9] = test system: Staphylococcus aureus; experiment: Antibacterial activity against methicillin-resistant Staphylococcus aureus assessed as bacterial growth inhibition; assay type: functional
[10] = test system: Pseudomonas aeruginosa; experiment: Antibacterial activity against Pseudomonas aeruginosa assessed as bacterial growth inhibition; assay type: functional
[11] = test system: Clostridioides difficile; experiment: Antibacterial activity against Clostridium difficile assessed as bacterial growth inhibition incubated for 24 hrs; assay type: functional
[12] = test system: Enterococcus faecalis; experiment: Antibacterial activity against vancomycin-resistant Enterococcus faecalis assessed as bacterial growth inhibition; assay type: functional
[13] = test system: Escherichia coli; experiment: Antibacterial activity against Escherichia coli assessed as bacterial growth inhibition; assay type: functional
[14] = test system: Staphylococcus epidermidis; experiment: Antibacterial activity against methicillin-resistant Staphylococcus epidermidis assessed as bacterial growth inhibition; assay type: functional
[15] = test system: Staphylococcus aureus; experiment: Antibacterial activity against Staphylococcus aureus assessed as bacterial growth inhibition incubated for 24 hrs; assay type: functional
[16] = Inhibition of Mycobacterium smegmatis biofilm fromation incubated for 48 hrs by crystal violet staining based analysis; assay type: functional, Mycolicibacterium smegmatis
[17] = test system: Plasmodium falciparum; experiment: Antiplasmodial activity against Plasmodium falciparum; assay type: functional, organism-based
[18] = test system: Mycobacterium tuberculosis; experiment: Potentiation of isoniazid-induced antimycobacterial activity against Mycobacterium tuberculosis H37Rv assessed as reduction in isoniazid MIC at 125 uM incubated for 48 hrs by alamar blue staining based analysis; assay type: functional
[19] = test system: Mycobacterium tuberculosis; experiment: Potentiation of isoniazid-induced antimycobacterial activity against Mycobacterium tuberculosis H37Rv assessed as reduction in isoniazid MIC at 250 uM incubated for 48 hrs by alamar blue staining based analysis; assay type: functional
[20] = test system: Nakaseomyces glabratus; experiment: Synergistic antifungal activity against Candida glabrata assessed as fractional inhibitory concentration index in presence of fluconazole incubated for 18 hrs by checkerboard assay; assay type: functional
[21] = test system: Nakaseomyces glabratus; experiment: Synergistic antifungal activity against Candida glabrata assessed as fractional inhibitory concentration index in presence of voriconazole incubated for 18 hrs by checkerboard assay; assay type: functional
[22] = test system: Nakaseomyces glabratus; experiment: Synergistic antifungal activity against Candida glabrata assessed as fractional inhibitory concentration index in presence of amphotericin incubated for 18 hrs by checkerboard assay; assay type: functional
[23] = test system: Mycobacterium tuberculosis; experiment: Anti-mycobacterial activity against Mycobacterium tuberculosis H37Rv assessed as growth inhibition incubated for 48 hrs by alamar blue staining based analysis; assay type: functional

`CCCCCCCC(NC(=O)CCCc1c[nH]c(N)n1)c1ccccc1` (stereo unspecified) showed an MIC [1] of 2 mg/L.

`COc1ccc(C2C(C(C)=O)=C(C)Nc3nc(N)[nH]c(=O)c32)cc1OC` (stereo unspecified) gave an MIC [2] of 1.95 mg/L (≈ 5.47 µM).

In the case of `N=C(N)NCCNC(=O)[C@H](Cc1c[nH]c2ccccc12)NC(=O)c1cc(Br)ccc1NC(=O)c1ccc2ccccc2c1`, the MIC [3] is reported as 2 µM (≈ 1.28 µg/mL) and the MIC [4] is reported as 15.6 µM (≈ 9.99 µg/mL).

Work on `N=C(N)NC[C@H]1OC(O[C@@H]2[C@@H](O)[C@H](O[C@H]3O[C@H](CN)[C@@H](O)[C@H](O)[C@H]3O)[C@@H](N)C[C@H]2N)[C@H](O)[C@@H](N)[C@@H]1O` (stereo partly specified) yielded an MIC [5] of 3.12 mg/L (≈ 5.95 µM).

`Cc1nn(-c2ccccc2)c(Cl)c1-c1nc(N)nc2c1c(C)nn2-c1ccccc1Cl` showed an MIC [6] of 1.2 mg/L (≈ 2.66 µM).

Work on `COC(=O)C(CCCCNC(=N)N)NC(=O)C(=O)c1cc(Br)ccc1NC(=O)c1ccc2ccccc2c1.Cl` (stereo unspecified) yielded an MIC [7] of 19 mg/L.

`CCCCCCN1C(=N)N(CC(=O)Nc2cccc(NC(=O)CN3C[C@H](Cc4ccccc4)N(CCCCCC)C3=N)c2)C[C@@H]1Cc1ccccc1` gave an MIC [8] of 0.75 mg/L (≈ 1.06 µM), an MIC [9] of 0.16 mg/L (≈ 0.226 µM) and an MIC [10] of 4 mg/L (≈ 5.66 µM). For the same molecule, the MIC [11] was 1 mg/L (≈ 1.41 µM), the MIC [12] was 0.75 mg/L (≈ 1.06 µM) and the MIC [13] was 0.75 mg/L (≈ 1.06 µM). For the same molecule, the MIC [14] was 0.75 mg/L (≈ 1.06 µM).

Molecule `COC(=O)C(CCCNC(=N)N)NC(=O)C(CCCCNC(=N)N)NC(=O)C(=O)c1cc(Br)ccc1NC(=O)c1ccc2ccccc2c1.Cl.Cl` (stereo unspecified) has an MIC [15] of 10 mg/L.

`CCCCCOc1ccc(-c2nc(N)[nH]c2C(F)(F)F)cc1` showed an IC50 [16] of under 10 µM.

In the case of `CCC/C=C\CCC[C@@H]1C2N=C(N)N[C@H]3CC[C@@H](C[C@H]1CCC)C23` (stereo partly specified), the IC50 [17] is reported as 8.37 µM.

Work on `N=C(N)NCCNC(=O)[C@H](Cc1c[nH]c2ccccc12)NC(=O)c1cc(F)ccc1NC(=O)c1ccc2ccccc2c1` yielded an MIC [3] of 2 µM (≈ 1.16 µg/mL).

With `CCCCCCc1ccc(-c2nc(N)[nH]c2C(F)(F)F)cc1` the IC50 [16] was under 10 µM.

For `CCCCCCC(CCCCCC)NC(=O)CCCc1c[nH]c(N)n1`, the MIC [18] was 0.039 mg/L and the MIC [19] was 0.039 mg/L.

For `CCCCNC(=N)NC(=N)N` [BUFORMIN], the “fractional inhibitory concentration index (FICI)” value [20] was 0.5, the “fractional inhibitory concentration index (FICI)” value [21] was 0.5 and the “fractional inhibitory concentration index (FICI)” value [22] was 0.5.

`NNC(=O)c1ccncc1` [ISONIAZID] showed an MIC [23] of 0.625 mg/L (≈ 4.56 µM).

For `CN(C)C(=N)NC(=N)N` [METFORMIN], the “fractional inhibitory concentration index (FICI)” value [20] was 0.5, the “fractional inhibitory concentration index (FICI)” value [21] was 0.5 and the “fractional inhibitory concentration index (FICI)” value [22] was 0.5.

With `N=C(N)NC(=N)NCCc1ccccc1` [PHENFORMIN] the “fractional inhibitory concentration index (FICI)” value [20] was 0.5, the “fractional inhibitory concentration index (FICI)” value [21] was 0.5 and the “fractional inhibitory concentration index (FICI)” value [22] was 0.5.
